The numbers were not newly measured in patent US11844783B2, “Formulations of bendamustine” (Eagle Pharmaceuticals, Inc., priority 2010, dated 2023), which cites them from elsewhere.

The structures appear in SMILES notation.

For the data set the following is noted: liquid form.

On to `Cn1c(CCCC(=O)O)nc2cc(N(CCCl)CCCl)ccc21` [bendamustine, Bendamustine], for which the stability in water result was “measured in hours”.
